Columns and labels:
[1] = test system: Trypanosoma cruzi; assay: Antitrypanosomal activity against clone C4 Trypanosoma cruzi Tulahuen expressing LacZ; format: functional, organism-based
[2] = test system: Trypanosoma brucei rhodesiense; assay: Antitrypanosomal activity against Trypanosoma brucei rhodesiense STIB900; format: functional, organism-based
[3] = test system: Trypanosoma brucei brucei; assay: Antitrypanosomal activity against Trypanosoma brucei brucei; format: functional, organism-based
[4] = test system: Leishmania donovani; assay: Antileishmanial activity against axenic amastigotes of Leishmania donovani; format: functional, organism-based
[5] = test system: Leishmania major; assay: Antileishmanial activity against promastigotes of Leishmania major; format: functional, organism-based
[6] = test system: Plasmodium falciparum; assay: Antiplasmodial activity against Plasmodium falciparum K1; format: functional, organism-based
[7] = test system: L6; assay: Cytotoxicity against rat L6 cells; format: cell-based
[8] = Selectivity index, ratio of IC50 for rat L6 cells to IC50 for Plasmodium falciparum K1; format: toxicity, cell-based; conditions: read-out: Ratio IC50
[9] = Trypanosoma cruzi, Tulahuen, read-out: IC50
[10] = Trypanosoma brucei, STIB900, read-out: IC50
[11] = Trypanosoma brucei, read-out: IC50
[12] = Leishmania donovani, read-out: IC50
[13] = Leishmania major, read-out: IC50

Compound	IC50 [1, 9] [µM]	IC50 [2, 10] [µM]	IC50 [3, 11] [µM]	IC50 [4, 12] [µM]	IC50 [5, 13] [µM]	IC50 [6] [nM]	IC50 [7] [µM]	selectivity ratio [8]	IC50 [1]	IC50 [2]	IC50 [4]	IC50 [3]	IC50 [5]
CC1=N[C@H](C)Cc2c(-c3ccc(C(F)(F)F)cc3)ccc(O)c21	19.2	14.8	15.9	35.1	> 100	460	96.8	210	–	–	–	–	–
CC1(C)Cc2c(Br)ccc(O)c2C=N1	–	–	> 100	–	> 100	708	> 100	> 141	Not Active	Not Active	Not Active	–	–
Oc1ccc(Br)c2c1C=NCC2	–	–	–	–	–	1240	> 100	–	Not Active	Not Active	Not Active	Not Active	Not Active
COc1ccc(Br)c2c1C(C)=N[C@H](C)C2	> 100	> 100	–	> 100	–	> 18900	> 100	–	–	–	–	Not Active	Not Active
COc1ccc(-c2ccccc2)c2c1C(C)=N[C@H](C)C2	46.7	6.48	14.8	74.9	> 100	1880	58.8	–	–	–	–	–	–
CC1=N[C@H](C)Cc2c(-c3ccccc3)ccc(O)c21	57.1	4.74	13.4	> 100	> 100	820	52.2	–	–	–	–	–	–
CC1=N[C@H](C)Cc2c(-c3ccc(C)cc3)ccc(O)c21	39.3	7.12	32	52	> 86	437	> 100	> 229	–	–	–	–	–
CC1=N[C@H](C)Cc2c(-c3ccc(O)cc3)ccc(O)c21	> 100	53.5	–	> 100	–	9910	> 100	–	–	–	–	Not Active	Not Active
CC1=N[C@H](C)Cc2c(-c3ccc(Cl)cc3)ccc(O)c21	–	–	> 40	–	> 100	532	> 100	> 188	Not Active	Not Active	Not Active	–	–
CC1=N[C@H](C)Cc2c(-c3cccc(Cl)c3)ccc(O)c21	13.9	7.63	27.1	24.7	52.4	856	50.8	–	–	–	–	–	–
COc1ccc(-c2cccc(Cl)c2)c2c1C(C)=N[C@H](C)C2	14	1.18	–	13	–	7960	38.4	–	–	–	–	Not Active	Not Active
COc1ccc(-c2cccc3ccccc23)c2c1C(C)=N[C@H](C)C2	15.9	3.96	–	14.4	–	6910	34.9	–	–	–	–	Not Active	Not Active
CC1=N[C@H](C)Cc2c(-c3cccc4ccccc34)ccc(O)c21	15.8	11.1	2.74	27.1	13.4	763	57.1	–	–	–	–	–	–
COc1ccc(-c2ccc3ccccc3c2)c2c1C(C)=N[C@H](C)C2	20.9	4.44	10.1	21.2	28.1	1180	72	–	–	–	–	–	–
CC1=N[C@H](C)Cc2c(-c3ccc4ccccc4c3)ccc(O)c21	16.7	1.01	25.4	38.2	34.7	476	72.5	152	–	–	–	–	–
COc1ccc(-c2ccc(OC)c3ccccc23)c2c1C=NC(C)(C)C2	–	–	30.4	1.95	37.2	2400	43.8	–	Not Active	Not Active	–	–	–

Compound	IC50 [1, 9] [µM]	IC50 [2, 10] [µM]	IC50 [3, 11] [µM]	IC50 [4, 12] [µM]	IC50 [5, 13] [µM]	IC50 [6] [nM]	IC50 [7] [µM]	selectivity ratio [8]	IC50 [1]	IC50 [2]	IC50 [4]	IC50 [3]	IC50 [5]
COc1ccc(-c2ccc(OC)c3ccccc23)c2c1C=NCC2	10.9	–	26.3	–	46.3	1700	34.3	–	–	Not Active	Not Active	–	–
Oc1ccc(-c2ccc(O)c3ccccc23)c2c1C=NCC2	–	–	–	–	–	3490	94.2	–	Not Active	Not Active	Not Active	Not Active	Not Active
COc1cccc2c(-c3ccc(O)c4c3CC(C)(C)N=C4)ccc(OC(C)C)c12	–	–	–	–	–	138	> 100	> 725	Not Active	Not Active	Not Active	Not Active	Not Active
COc1cccc2c(-c3ccc(O)c4c3CCN=C4)ccc(OC(C)C)c12	–	–	–	–	–	119	27	227	Not Active	Not Active	Not Active	Not Active	Not Active
COc1cccc2c(-c3ccc(O)c4c3CC(C)(C)N=C4)ccc(O)c12	–	–	34.1	–	> 100	1700	> 100	–	Not Active	Not Active	Not Active	–	–
COc1cccc2c(-c3ccc(O)c4c3CCN=C4)ccc(O)c12	–	–	–	–	–	1990	98.2	–	Not Active	Not Active	Not Active	Not Active	Not Active
COc1cccc2c(-c3ccc(O)c4c3CC(C)(C)NC4)ccc(O)c12	–	2.92	–	–	–	223	37.5	168	Not Active	–	Not Active	Not Active	Not Active
COc1cccc2c(-c3ccc(O)c4c3CCNC4)ccc(O)c12	–	2.48	–	–	–	264	40.2	152	Not Active	–	Not Active	Not Active	Not Active
COc1ccc(-c2ccc(C)cc2)c2c1C(C)=N[C@H](C)C2	19.3	5.83	20.2	35.5	> 83	2490	> 100	–	–	–	–	–	–
COc1ccc(-c2ccc(O)cc2)c2c1C(C)=N[C@H](C)C2	25.5	4.77	–	21.4	–	10800	> 100	–	–	–	–	Not Active	Not Active
COc1ccc(-c2ccc(Cl)cc2)c2c1C(C)=N[C@H](C)C2	15	7.81	–	15.9	–	6440	56.7	–	–	–	–	Not Active	Not Active
COc1ccc(-c2ccc(C(F)(F)F)cc2)c2c1C(C)=N[C@H](C)C2	> 100	7.38	10.4	18.3	> 100	3000	> 100	–	–	–	–	–	–
C[C@@H]1[C@H](O)[C@@H](C)/C=C/C=C/C=C/C=C/C=C/C=C/C=C/[C@H](O[C@@H]2O[C@H](C)[C@@H](O)[C@H](N)[C@@H]2O)C[C@@H]2O[C@](O)(C[C@@H](O)C[C@@H](O)[C@H](O)CC[C@@H](O)C[C@@H](O)CC(=O)O[C@H]1C)C[C@H](O)[C@H]2C(=O)O [AMPHOTERICIN B]	–	–	–	–	2.51	–	–	–	–	–	–	–	–
O=C(Cn1ccnc1[N+](=O)[O-])NCc1ccccc1 [BENZNIDAZOLE]	1.98	–	–	–	–	–	–	–	–	–	–	–	–
Nc1nc(N)nc(Nc2ccc([As]3SCC(CO)S3)cc2)n1 (centres undefined) [MELARSOPROL]	–	0.007	–	–	–	–	–	–	–	–	–	–	–
N=C(N)c1ccc(OCCCCCOc2ccc(C(=N)N)cc2)cc1 [PENTAMIDINE]	–	–	0.003	–	–	–	–	–	–	–	–	–	–
